# Data from patent US8952024B2, “Herbicidal pyrimidone derivatives” (E I du Pont de Nemours and Company, priority 2009, dated 2015).
# Tests used:
# Type in all cases: in vivo
# Conditions in all cases: Postemergence
# [1] = tested on: chickweed (Stellaria media); assay: Test B postemergence plant response
# Summary of the method: (§1)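 Plants grown in peat/vermiculite medium were sprayed postemergence at 2–18 cm height (1- to 4-leaf stage). After 13–15 days in the greenhouse, response was rated visually against untreated controls on a 0–100 scale (0 no effect, 100 complete control).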
# [2] = tested on: canarygrass (Phalaris minor); assay: Test B postemergence plant response
# Summary of the method: as §1
# [3] = tested on: windgrass (Apera spica-venti); assay: Test B postemergence plant response
# Summary of the method: as §1
# wild oat (Avena fatua) = assay: Test B pre-/postemergence plant response
# Source text: (§2) Seeds of plant species selected from blackgrass (Alopecurus myosuroides), downy bromegrass (Bromus tectorum), green foxtail (Setaria viridis), Italian ryegrass (Lolium multiflorum), wheat (Triticum aestivum), wild oat (Avena fatua), deadnettle (henbit deadnettle, Lamium amplexicaule), galium (catchweed bedstraw, Galium aparine), bermudagrass (Cynodon dactylon), Surinam grass (Brachiaria decumbens), cocklebur (Xanthium strumarium), corn (Zea mays), large crabgrass (Digitaria sanguinalis), woolly cupgrass (Eriochloa villosa), giant foxtail (Setaria faberii), goosegrass (Eleusine indica), johnsongrass (Sorghum halepense), kochia (Kochia scoparia), lambsquarters (Chenopodium album), morningglory (Ipomoea coccinea), nightshade (eastern black nightshade, Solanum ptycanthum), yellow nutsedge (Cyperus esculentus), pigweed (Amaranthus retroflexus), ragweed (common ragweed, Ambrosia elatior), Russian thistle (Salsola kali), soybean (Glycine max), sunflower (common oilseed sunflower, Helianthus annuus) and velvetleaf (Abutilon theophrasti) were planted into a blend of loam soil and sand and treated preemergence with test compounds formulated in a non-phytotoxic solvent mixture which included a surfactant.
# (§3) At the same time, plants selected from these crop and weed species and also winter barley (Hordeum vulgare), canarygrass (Phalaris minor), chickweed (Stellaria media) and windgrass (Apera spica-venti) were planted in pots containing Redi-Earth® planting medium (Scotts Company, 14111 Scottslawn Road, Marysville, Ohio 43041) comprising spaghnum peat moss, vermiculite, wetting agent and starter nutrients and treated with postemergence applications of some of the test chemicals formulated in the same manner. Plants ranged in height from 2 to 18 cm (1- to 4-leaf stage) for postemergence treatments.
# (§4) Treated plants and controls were maintained in a greenhouse for 13 to 15 days, after which time all treated plants were visually evaluated and compared to controls. Plant response ratings, summarized in Table B, are based on a scale of 0 to 100 where 0 is no effect and 100 is complete control. A dash (-) response means no test result.
# [4] = tested on: pigweed (Amaranthus retroflexus); assay: Test B pre-/postemergence plant response
# Source text: as §2, §3, §4
# [5] = tested on: goosegrass (Eleusine indica); assay: Test B pre-/postemergence plant response
# Source text: as §2, §3, §4
# soybean (Glycine max) = assay: Test B pre-/postemergence plant response
# Source text: as §2, §3, §4
# [6] = tested on: wheat (Triticum aestivum); assay: Test B pre-/postemergence plant response
# Source text: as §2, §3, §4
# kochia (Kochia scoparia) = assay: Test B pre-/postemergence plant response
# Source text: as §2, §3, §4
# [7] = tested on: velvetleaf (Abutilon theophrasti); assay: Test B pre-/postemergence plant response
# Source text: as §2, §3, §4
# [8] = tested on: cocklebur (Xanthium strumarium); assay: Test B pre-/postemergence plant response
# Source text: as §2, §3, §4
# [9] = tested on: johnsongrass (Sorghum halepense); assay: Test B pre-/postemergence plant response
# Source text: as §2, §3, §4
# [10] = 125 g ai/ha, scale 0 to 100 (0 no effect, 100 complete control)
# [11] = 250 g ai/ha, scale 0 to 100 (0 no effect, 100 complete control), 13 to 15 days
# [12] = 31 g ai/ha, 0 to 100 scale (0 no effect, 100 complete control)
# [13] = 62 g ai/ha, scale 0 to 100 (0 no effect, 100 complete control)
structure (smiles),measurement,setting,value
CCCn1c(-c2cccc(Cl)c2)ncc(C(=O)C2=C(O)CCCC2=O)c1=O [Compound 190],"Plant response rating, Chickweed",[1]; [10],100
same,"Plant response rating, Chickweed",[1]; [11],100
same,"Plant response rating, Canarygrass",[2]; [12],0
same,"Plant response rating, Canarygrass",[2]; [10],25
same,"Plant response rating, Canarygrass",[2]; [11],55
same,"Plant response rating, Windgrass",[3]; [12],15
same,"Plant response rating, Windgrass",[3]; [10],65
same,"Plant response rating, Windgrass",[3]; [11],65
same,"Plant response rating, Oat, Wild",wild oat (Avena fatua); [12],0
same,"Plant response rating, Oat, Wild",wild oat (Avena fatua); [10],40
same,"Plant response rating, Oat, Wild",wild oat (Avena fatua); [11],50
same,"Plant response rating, Pigweed",[4]; [12],65
same,"Plant response rating, Pigweed",[4]; [10],100
same,"Plant response rating, Pigweed",[4]; [11],100
same,"Plant response rating, Goosegrass",[5]; [12],70
same,"Plant response rating, Goosegrass",[5]; [10],80
same,"Plant response rating, Goosegrass",[5]; [11],98
same,"Plant response rating, Soybean",soybean (Glycine max); [12],80
same,"Plant response rating, Soybean",soybean (Glycine max); [10],95
same,"Plant response rating, Soybean",soybean (Glycine max); [11],98
same,"Plant response rating, Wheat",[6]; [12],0
same,"Plant response rating, Wheat",[6]; [10],30
same,"Plant response rating, Wheat",[6]; [11],30
same,"Plant response rating, Kochia",kochia (Kochia scoparia); [12],0
same,"Plant response rating, Kochia",kochia (Kochia scoparia); [10],98
same,"Plant response rating, Kochia",kochia (Kochia scoparia); [11],98
same,"Plant response rating, Velvetleaf",[7]; [12],100
same,"Plant response rating, Velvetleaf",[7]; [10],100
same,"Plant response rating, Velvetleaf",[7]; [11],100
same,"Plant response rating, Cocklebur",[8]; [12],40
same,"Plant response rating, Cocklebur",[8]; [10],95
same,"Plant response rating, Cocklebur",[8]; [11],100
same,"Plant response rating, Johnsongrass",[9]; [12],60
same,"Plant response rating, Johnsongrass",[9]; [10],75
same,"Plant response rating, Johnsongrass",[9]; [11],80
Cc1cc(-n2c(-c3cccc(F)c3)ncc(C(=O)C3=C(O)CCCC3=O)c2=O)ccc1F [Compound 191],"Plant response rating, Chickweed",[1]; [12],98
same,"Plant response rating, Chickweed",[1]; [13],98
same,"Plant response rating, Chickweed",[1]; [10],98
same,"Plant response rating, Chickweed",[1]; [11],100
same,"Plant response rating, Canarygrass",[2]; [12],20
same,"Plant response rating, Canarygrass",[2]; [13],50
same,"Plant response rating, Canarygrass",[2]; [10],60
same,"Plant response rating, Canarygrass",[2]; [11],85
same,"Plant response rating, Windgrass",[3]; [12],55
same,"Plant response rating, Windgrass",[3]; [13],85
same,"Plant response rating, Windgrass",[3]; [10],85
same,"Plant response rating, Windgrass",[3]; [11],100
same,"Plant response rating, Oat, Wild",wild oat (Avena fatua); [12],50
same,"Plant response rating, Oat, Wild",wild oat (Avena fatua); [13],60
same,"Plant response rating, Oat, Wild",wild oat (Avena fatua); [10],70
same,"Plant response rating, Oat, Wild",wild oat (Avena fatua); [11],80
same,"Plant response rating, Pigweed",[4]; [12],80
same,"Plant response rating, Pigweed",[4]; [13],85
same,"Plant response rating, Pigweed",[4]; [10],98
same,"Plant response rating, Pigweed",[4]; [11],100
same,"Plant response rating, Goosegrass",[5]; [12],95
same,"Plant response rating, Goosegrass",[5]; [13],98
same,"Plant response rating, Goosegrass",[5]; [10],100
same,"Plant response rating, Goosegrass",[5]; [11],100
same,"Plant response rating, Soybean",soybean (Glycine max); [12],90
same,"Plant response rating, Soybean",soybean (Glycine max); [13],95
same,"Plant response rating, Soybean",soybean (Glycine max); [10],100
same,"Plant response rating, Soybean",soybean (Glycine max); [11],100
same,"Plant response rating, Wheat",[6]; [12],35
same,"Plant response rating, Wheat",[6]; [13],40
same,"Plant response rating, Wheat",[6]; [10],55
same,"Plant response rating, Wheat",[6]; [11],65
same,"Plant response rating, Kochia",kochia (Kochia scoparia); [12],5
same,"Plant response rating, Kochia",kochia (Kochia scoparia); [13],10
same,"Plant response rating, Kochia",kochia (Kochia scoparia); [10],25
same,"Plant response rating, Kochia",kochia (Kochia scoparia); [11],35
same,"Plant response rating, Velvetleaf",[7]; [12],75
same,"Plant response rating, Velvetleaf",[7]; [13],80
same,"Plant response rating, Velvetleaf",[7]; [10],90
same,"Plant response rating, Velvetleaf",[7]; [11],100
same,"Plant response rating, Cocklebur",[8]; [12],90
same,"Plant response rating, Cocklebur",[8]; [13],98
same,"Plant response rating, Cocklebur",[8]; [10],98
same,"Plant response rating, Cocklebur",[8]; [11],100
same,"Plant response rating, Johnsongrass",[9]; [12],70
same,"Plant response rating, Johnsongrass",[9]; [13],100
same,"Plant response rating, Johnsongrass",[9]; [10],100
same,"Plant response rating, Johnsongrass",[9]; [11],100
O=C1CCCC(O)=C1C(=O)c1cnc(-c2ccc(F)cc2)n(C2CCCCC2)c1=O [Compound 197],"Plant response rating, Chickweed",[1]; [12],100
same,"Plant response rating, Chickweed",[1]; [13],100
same,"Plant response rating, Chickweed",[1]; [10],100
same,"Plant response rating, Chickweed",[1]; [11],100
same,"Plant response rating, Canarygrass",[2]; [12],5
same,"Plant response rating, Canarygrass",[2]; [13],30
same,"Plant response rating, Canarygrass",[2]; [10],40
same,"Plant response rating, Canarygrass",[2]; [11],60
same,"Plant response rating, Windgrass",[3]; [12],10
same,"Plant response rating, Windgrass",[3]; [13],50
same,"Plant response rating, Windgrass",[3]; [11],98
same,"Plant response rating, Oat, Wild",wild oat (Avena fatua); [12],40
same,"Plant response rating, Oat, Wild",wild oat (Avena fatua); [13],40
same,"Plant response rating, Oat, Wild",wild oat (Avena fatua); [11],85
same,"Plant response rating, Pigweed",[4]; [12],80
same,"Plant response rating, Pigweed",[4]; [13],90
same,"Plant response rating, Pigweed",[4]; [11],100
same,"Plant response rating, Goosegrass",[5]; [12],85
same,"Plant response rating, Goosegrass",[5]; [13],98
same,"Plant response rating, Goosegrass",[5]; [10],100
same,"Plant response rating, Goosegrass",[5]; [11],100
same,"Plant response rating, Soybean",soybean (Glycine max); [12],98
same,"Plant response rating, Soybean",soybean (Glycine max); [13],100
same,"Plant response rating, Soybean",soybean (Glycine max); [11],100
same,"Plant response rating, Wheat",[6]; [12],0
same,"Plant response rating, Wheat",[6]; [13],0
same,"Plant response rating, Wheat",[6]; [11],40
same,"Plant response rating, Kochia",kochia (Kochia scoparia); [12],65
same,"Plant response rating, Kochia",kochia (Kochia scoparia); [13],80
same,"Plant response rating, Kochia",kochia (Kochia scoparia); [10],95
same,"Plant response rating, Kochia",kochia (Kochia scoparia); [11],98
same,"Plant response rating, Velvetleaf",[7]; [12],80
same,"Plant response rating, Velvetleaf",[7]; [13],80
same,"Plant response rating, Velvetleaf",[7]; [11],100
same,"Plant response rating, Cocklebur",[8]; [12],80
same,"Plant response rating, Cocklebur",[8]; [13],100
same,"Plant response rating, Cocklebur",[8]; [10],100
same,"Plant response rating, Cocklebur",[8]; [11],100
same,"Plant response rating, Johnsongrass",[9]; [12],70
same,"Plant response rating, Johnsongrass",[9]; [13],85
same,"Plant response rating, Johnsongrass",[9]; [10],95
same,"Plant response rating, Johnsongrass",[9]; [11],100
